# Data from paper PMC4979471 (Cell Death Discovery, 2015).
# Like-named read-outs stand apart in the source and are kept apart here.
# Experiments:
# Test in all cases: Kinase selectivity, P33-radiolabeled assay
# Type in all cases: biochemical
# Conditions in all cases: 10 μM ATP
# [1] = biological target: T1, VRK1 (Homo sapiens, UniProt Q99986)
# T1 construct: purchased Reaction Biology Corp
# T1 sequence (Q99986 1-396): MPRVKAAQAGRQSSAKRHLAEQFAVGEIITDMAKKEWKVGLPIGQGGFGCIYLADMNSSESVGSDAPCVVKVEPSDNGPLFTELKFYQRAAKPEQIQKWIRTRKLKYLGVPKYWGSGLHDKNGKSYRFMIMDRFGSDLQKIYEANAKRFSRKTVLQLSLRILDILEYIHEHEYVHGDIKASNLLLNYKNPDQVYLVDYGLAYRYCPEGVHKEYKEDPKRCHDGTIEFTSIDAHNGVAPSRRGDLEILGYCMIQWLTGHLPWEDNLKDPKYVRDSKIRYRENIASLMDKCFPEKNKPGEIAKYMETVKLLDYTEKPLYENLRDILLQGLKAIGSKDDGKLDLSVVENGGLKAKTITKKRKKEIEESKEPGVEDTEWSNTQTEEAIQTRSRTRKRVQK
# Method in brief: (§1)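 Activity relative to DMSO controls (%) was measured for compound at 10 μM. Assays ran at 10 μM ATP, in duplicate.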
# [2] = biological target: T2, RIPK3 (Homo sapiens, UniProt Q9Y572)
# T2 construct: purchased Reaction Biology Corp
# Method in brief: as §1
# [3] = biological target: T3, EPHB3 (Homo sapiens, UniProt P54753)
# T3 construct: purchased Reaction Biology Corp
# T3 sequence (P54753 34-998): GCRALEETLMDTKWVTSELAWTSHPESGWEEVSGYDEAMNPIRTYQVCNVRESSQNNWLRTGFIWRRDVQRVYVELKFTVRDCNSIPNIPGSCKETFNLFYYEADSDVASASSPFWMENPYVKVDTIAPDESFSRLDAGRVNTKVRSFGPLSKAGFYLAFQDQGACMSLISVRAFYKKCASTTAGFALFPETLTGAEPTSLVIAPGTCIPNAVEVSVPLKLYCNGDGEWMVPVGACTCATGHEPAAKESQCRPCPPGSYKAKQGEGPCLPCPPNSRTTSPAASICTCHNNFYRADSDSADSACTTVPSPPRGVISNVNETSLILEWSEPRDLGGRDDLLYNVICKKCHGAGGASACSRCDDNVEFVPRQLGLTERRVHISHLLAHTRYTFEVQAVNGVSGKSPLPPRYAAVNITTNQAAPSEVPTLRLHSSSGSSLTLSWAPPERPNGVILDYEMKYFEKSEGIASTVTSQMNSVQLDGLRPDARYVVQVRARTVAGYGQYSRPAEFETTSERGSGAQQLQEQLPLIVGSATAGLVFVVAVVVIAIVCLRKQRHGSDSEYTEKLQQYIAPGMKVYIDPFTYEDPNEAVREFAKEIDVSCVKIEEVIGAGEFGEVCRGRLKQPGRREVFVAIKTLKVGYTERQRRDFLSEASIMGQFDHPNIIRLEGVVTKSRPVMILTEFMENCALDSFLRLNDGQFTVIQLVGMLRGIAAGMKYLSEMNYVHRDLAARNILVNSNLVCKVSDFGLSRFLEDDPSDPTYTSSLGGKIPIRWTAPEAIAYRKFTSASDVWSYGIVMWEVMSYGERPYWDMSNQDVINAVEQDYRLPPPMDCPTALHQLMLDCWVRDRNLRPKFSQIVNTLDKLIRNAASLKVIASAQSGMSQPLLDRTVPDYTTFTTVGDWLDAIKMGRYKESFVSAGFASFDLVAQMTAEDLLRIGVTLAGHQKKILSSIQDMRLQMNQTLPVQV
# Method in brief: as §1
# [4] = biological target: T4, CHK1 (Homo sapiens, UniProt O14757)
# T4 construct: purchased Reaction Biology Corp
# T4 sequence (O14757 1-476): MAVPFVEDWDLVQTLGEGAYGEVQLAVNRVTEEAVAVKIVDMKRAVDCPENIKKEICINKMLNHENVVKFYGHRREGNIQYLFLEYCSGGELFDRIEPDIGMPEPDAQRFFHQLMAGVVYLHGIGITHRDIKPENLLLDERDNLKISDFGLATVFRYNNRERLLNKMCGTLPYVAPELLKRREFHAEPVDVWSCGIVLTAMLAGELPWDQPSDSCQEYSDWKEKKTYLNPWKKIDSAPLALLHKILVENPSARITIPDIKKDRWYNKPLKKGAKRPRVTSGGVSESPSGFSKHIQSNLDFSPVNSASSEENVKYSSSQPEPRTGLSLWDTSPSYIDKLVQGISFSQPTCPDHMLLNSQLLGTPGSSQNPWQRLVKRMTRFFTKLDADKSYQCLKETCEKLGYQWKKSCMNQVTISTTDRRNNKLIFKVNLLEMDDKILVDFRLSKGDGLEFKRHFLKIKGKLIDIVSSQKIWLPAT
# Method in brief: as §1
# [5] = biological target: T5, CDK2/cyclin A (Homo sapiens, UniProt P24941)
# T5 construct: purchased Reaction Biology Corp
# Method in brief: as §1
# [6] = biological target: T6, p70S6Kb/RPS6KB2 (Homo sapiens, UniProt Q9UBS0)
# T6 construct: purchased Reaction Biology Corp
# Method in brief: as §1
# [7] = biological target: T7, MKK4 (Homo sapiens, UniProt P45985)
# T7 construct: purchased Reaction Biology Corp
# T7 sequence (P45985 1-399): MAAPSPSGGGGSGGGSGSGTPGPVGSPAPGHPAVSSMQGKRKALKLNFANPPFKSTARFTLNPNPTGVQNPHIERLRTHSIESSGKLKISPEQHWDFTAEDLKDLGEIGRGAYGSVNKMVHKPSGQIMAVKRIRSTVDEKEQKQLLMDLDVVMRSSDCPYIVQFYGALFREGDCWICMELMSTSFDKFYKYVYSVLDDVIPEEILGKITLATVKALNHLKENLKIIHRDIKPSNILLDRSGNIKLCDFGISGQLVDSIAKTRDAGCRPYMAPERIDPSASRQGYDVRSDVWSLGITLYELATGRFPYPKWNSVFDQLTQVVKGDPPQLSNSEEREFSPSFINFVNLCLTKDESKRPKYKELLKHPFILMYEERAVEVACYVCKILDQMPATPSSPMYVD
# Method in brief: as §1
# [8] = biological target: T8, SIK2 (Homo sapiens, UniProt Q9H0K1)
# T8 construct: purchased Reaction Biology Corp
# Method in brief: as §1
# [9] = read-out: % Enzyme Activity (relative to DMSO controls) AVG
# [10] = read-out: % Enzyme Activity (relative to DMSO controls) Data 1
# [11] = read-out: % Enzyme Activity (relative to DMSO controls) Data 2
# T2 sequence (Q9Y572 whole entry): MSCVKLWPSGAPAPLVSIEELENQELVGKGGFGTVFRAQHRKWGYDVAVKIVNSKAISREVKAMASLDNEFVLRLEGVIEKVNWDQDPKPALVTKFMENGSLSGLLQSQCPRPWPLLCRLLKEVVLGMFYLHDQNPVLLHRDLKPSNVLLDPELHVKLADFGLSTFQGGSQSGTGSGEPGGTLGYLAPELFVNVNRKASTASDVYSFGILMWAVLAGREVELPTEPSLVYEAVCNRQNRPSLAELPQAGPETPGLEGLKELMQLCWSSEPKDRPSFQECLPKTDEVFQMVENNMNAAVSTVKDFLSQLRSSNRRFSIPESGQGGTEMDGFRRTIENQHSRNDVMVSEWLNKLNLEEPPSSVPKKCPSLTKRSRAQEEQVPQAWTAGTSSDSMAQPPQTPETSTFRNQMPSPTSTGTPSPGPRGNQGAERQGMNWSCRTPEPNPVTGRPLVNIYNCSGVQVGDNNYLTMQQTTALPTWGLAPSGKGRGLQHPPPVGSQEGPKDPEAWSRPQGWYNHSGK
# T8 sequence (Q9H0K1 whole entry): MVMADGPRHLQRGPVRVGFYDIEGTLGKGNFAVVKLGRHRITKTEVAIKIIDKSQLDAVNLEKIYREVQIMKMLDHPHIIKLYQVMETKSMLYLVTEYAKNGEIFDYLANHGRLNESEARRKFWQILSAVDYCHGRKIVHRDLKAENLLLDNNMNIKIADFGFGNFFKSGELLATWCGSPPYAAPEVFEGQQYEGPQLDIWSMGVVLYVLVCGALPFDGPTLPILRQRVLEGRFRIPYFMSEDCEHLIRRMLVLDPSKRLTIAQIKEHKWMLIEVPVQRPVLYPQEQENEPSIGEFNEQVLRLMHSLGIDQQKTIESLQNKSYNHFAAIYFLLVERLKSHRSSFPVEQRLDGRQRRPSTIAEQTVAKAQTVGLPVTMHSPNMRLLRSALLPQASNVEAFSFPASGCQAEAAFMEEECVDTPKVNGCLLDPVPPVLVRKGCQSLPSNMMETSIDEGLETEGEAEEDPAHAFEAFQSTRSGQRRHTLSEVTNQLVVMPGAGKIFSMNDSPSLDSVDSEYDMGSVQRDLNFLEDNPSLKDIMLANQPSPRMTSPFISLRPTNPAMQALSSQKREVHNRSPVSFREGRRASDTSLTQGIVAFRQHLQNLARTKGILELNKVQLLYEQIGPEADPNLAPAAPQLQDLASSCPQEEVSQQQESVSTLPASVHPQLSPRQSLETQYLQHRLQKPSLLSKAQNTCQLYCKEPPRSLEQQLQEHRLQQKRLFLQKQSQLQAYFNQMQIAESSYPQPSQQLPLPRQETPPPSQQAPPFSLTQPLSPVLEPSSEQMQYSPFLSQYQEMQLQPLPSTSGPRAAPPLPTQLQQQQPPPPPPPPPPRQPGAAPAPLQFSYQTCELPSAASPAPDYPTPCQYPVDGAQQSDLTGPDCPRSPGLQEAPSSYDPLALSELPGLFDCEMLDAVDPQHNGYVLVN
# T6 sequence (Q9UBS0 whole entry): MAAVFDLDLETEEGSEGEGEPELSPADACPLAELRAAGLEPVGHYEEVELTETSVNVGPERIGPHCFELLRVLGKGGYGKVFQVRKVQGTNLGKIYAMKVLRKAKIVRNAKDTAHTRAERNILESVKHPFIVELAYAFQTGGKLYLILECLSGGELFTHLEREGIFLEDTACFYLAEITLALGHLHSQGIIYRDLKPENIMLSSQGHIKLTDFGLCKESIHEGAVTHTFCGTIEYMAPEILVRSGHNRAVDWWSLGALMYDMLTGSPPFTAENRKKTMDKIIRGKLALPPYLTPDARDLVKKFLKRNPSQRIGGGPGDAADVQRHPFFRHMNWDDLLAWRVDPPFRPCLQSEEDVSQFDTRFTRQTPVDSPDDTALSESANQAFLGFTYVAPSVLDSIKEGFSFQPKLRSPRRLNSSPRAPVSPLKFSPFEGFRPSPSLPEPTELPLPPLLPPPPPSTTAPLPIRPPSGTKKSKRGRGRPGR
smiles,measurement,setting,value
CC(C)(C)C(=O)N1N=CC[C@H]1c1ccccc1 [GSK′963],remaining activity at 10 µM,[1]; [9],78.2%
same,remaining activity at 10 µM,[1]; [10],80.9%
same,remaining activity at 10 µM,[1]; [11],75.4%
same,remaining activity at 10 µM,[2]; [9],99.3%
same,remaining activity at 10 µM,[2]; [10],100%
same,remaining activity at 10 µM,[2]; [11],98.7%
same,remaining activity at 10 µM,[3]; [9],105%
same,remaining activity at 10 µM,[3]; [10],103%
same,remaining activity at 10 µM,[3]; [11],107%
same,remaining activity at 10 µM,[4]; [9],115%
same,remaining activity at 10 µM,[4]; [10],122%
same,remaining activity at 10 µM,[4]; [11],109%
same,remaining activity at 10 µM,[5]; [9],93.6%
same,remaining activity at 10 µM,[5]; [10],95.3%
same,remaining activity at 10 µM,[5]; [11],92%
same,remaining activity at 10 µM,[6]; [9],100%
same,remaining activity at 10 µM,[6]; [10],102%
same,remaining activity at 10 µM,[6]; [11],98%
same,remaining activity at 10 µM,[7]; [9],105%
same,remaining activity at 10 µM,[7]; [10],105%
same,remaining activity at 10 µM,[7]; [11],105%
same,remaining activity at 10 µM,[8]; [9],96.7%
same,remaining activity at 10 µM,[8]; [10],94.8%
same,remaining activity at 10 µM,[8]; [11],98.6%
